According to the OPERA property sets (Mansouri et al. 2018):

SMILES | logP
Cc1cc2occc2c2oc(=O)ccc12 | 2.41
COc1ccc(C2C(=O)c3ccccc3C2=O)cc1 | 2.88
Nc1c([N+](=O)[O-])ccc2ncccc12 | 1.61
CCCOc1ccc(Cc2cnc(N)nc2N)cc1OC | 2.02
CCCCc1ccc(O)cc1 | 3.65
Cc1ccc(S(=O)(=O)NC(=O)NN2CCCC2)cc1 | 0.65
OCc1cc(Cl)ccc1O | 1.44
CNC(=O)c1cc(Br)cc(C)c1O | 3.51
CCCCCC(=O)OCC(Cc1cncn1C)C(CC)C(=O)OCc1ccccc1 (configuration not stated) | 4.75
CCc1nc(N)nc(N)c1-c1ccc(Cl)c(Cl)c1 | 3.03
Cc1ccc(C(O)(Cn2ccnc2)c2ccc(Br)cc2)cc1 (configuration not stated) | 3.55
CCS[C@@H]1O[C@H](CO)[C@H](O)[C@H](O)[C@H]1O | -1.51
COc1cccc(/C=C/C(=O)O)c1 | 2.37
CC(=O)OCCCN1C(=O)C(OC(C)=O)N=C(c2ccccc2)c2cc(Cl)ccc21 (configuration not stated) | 3.08
C=C1C(=O)OC2C=C(C)C(OC(C)=O)CC(O)C(C)=CC(OC(=O)C(C)=CC)C12 (configuration not stated) | 1.16
O=C1c2ccccc2C(=O)C1c1ccc(-c2ccccc2)cc1 | 4.79
O=C1C2C3C=CC(C4C=CC43)C2C(=O)N1CCCCN1CCN(c2ncccn2)CC1 (configuration not stated) | 1.79
O=c1ccn([C@H]2CC[C@@H](CO)O2)c(=O)[nH]1 | -1
O=C(O)c1cccnc1 | 0.36
Cn1nnnc1SCC1=C(C(=O)OCOC(=O)C(C)(C)C)N2C(=O)C(NC(=O)C(O)c3ccccc3)C2SC1 (configuration not stated) | 0.85
Nc1ccn([C@H]2C=C[C@@H](CO)O2)c(=O)n1 | -1.55
CN(C)[C@@H]1C(O)=C(C(N)=O)C(=O)[C@@]2(O)C(O)=C3C(=O)c4c(O)ccc(Cl)c4[C@@](C)(O)[C@H]3C[C@@H]12 | -0.62
COC1CC(OC2CCC3(C=O)C4CCC5(C)C(C6=CC(=O)OC6)CCC5(O)C4CCC3(O)C2)OC(C)C1O (configuration not stated) | 0.64

SMILES | logP
CN1CC=C(c2cccs2)CC1 | 2.51
CCCc1ccc(CC(=O)O)cc1 | 3
CCCOC(=O)C(C(=O)OCCC)=C1SCCS1 | 3.35
C=C1C(=O)OC2C1C(OC(=O)C(C)=CC)CC1(CO1)C1C(OC(C)=O)C=C(C)C21O (configuration not stated) | 0.76
COc1ccccc1N1CCN(CCCNc2cc(=O)n(C)c(=O)n2C)CC1 | 1.6
Nc1ccc(S(=O)(=O)Nc2ccccc2[N+](=O)[O-])cc1 | 2.11
CC(CC(=O)O)CC(=O)c1ccc(-c2ccccc2)cc1 (configuration not stated) | 3.82
COC(=O)c1ccc(CN(C)N=O)cc1 | 1.21
CCc1ccc(NC(=O)CN2CCCCC2)cc1 | 3.52
CCCCCCC(C)(C)c1cc(O)c2c(c1)OC(C)(C)C1CC=C(C)CC21 (configuration not stated) | 9.96
O=C(NN1CC=CCC1)c1ccco1 | 0.81
Cc1c2ccccc2c(C)c2ccccc12 | 5.69
Cc1c(Br)cccc1N=C1NCCN1 | 1.94
COc1ccc(N2Cn3c(nc4ccccc4c3=O)C2C)cc1 (configuration not stated) | 1.73
CCCCC(CCCC)C(=O)O | 3.2
C=C1C(=O)O[C@H]2[C@H]1[C@H](OC(=O)/C(C)=C\C)CC(=C)[C@@H]1[C@H](O)[C@H]3O[C@@]3(C)[C@@]12O | 1.69
OC(Cn1ccnc1)(c1ccc(-c2ccccn2)cc1)c1ccc(F)cc1F (configuration not stated) | 3.65
Nc1ccc(S(=O)(=O)Nc2ccc([N+](=O)[O-])cc2)cc1 | 2.14
OCc1cc(Br)ccc1O | 1.72
Cc1cnc([N+](=O)[O-])n1CCO | 0.18
OC(CN1CCOCC1)(c1ccc(F)cc1)c1ccc(-c2ccncc2)cc1 (configuration not stated) | 2.82
CNC(=S)NCCSCc1cncn1C | 0.32
Cc1ccc2c(c1)C(c1ccccc1)=NCC(=O)N2 | 2.62

SMILES | logP
CCC(C(=O)NC(N)=O)(C(=O)OC)c1ccccc1 (configuration not stated) | 1.58
C=C(C)C(=O)OCCOCCOCCOC(=O)C(=C)C | 1.88
CCCCCC=CCC=CCCCCCCCC(=O)O | 7.05
O=[N+]([O-])c1cnc(N=C2NCCO2)s1 | 0.57
CC(C)c1cc(C(C)C)cc(C2C(=O)c3ccccc3C2=O)c1 | 5.96
COC(=O)Nc1ccc(Cl)c(Cl)c1 | 3.32
CCOC(=O)C(CC(C)C)NC(=O)CNC(=O)CNC(=O)CCCCSc1ncnc2nc[nH]c12 (configuration not stated) | 1.07
Cc1ccccc1C(=O)c1ccc2n1CCC2C(=O)O (configuration not stated) | 2.9
C=C1C(=O)OC2C=C(C)C3(O)C=CC(C)(CC(OC(=O)C(=CC)COC(C)=O)C12)O3 (configuration not stated) | 1.19
C=C1C(=O)OC2C1C(OC(=O)C(C)=CC)CC(O)(CCl)C1C(OC(C)=O)C=C(C)C21O (configuration not stated) | 1.42
c1ccc2cc3cc4ccccc4cc3cc2c1 | 5.76
COc1c(Br)cc(Br)cc1Br | 4.48
C=C(C)C(=O)OCC(O)COc1ccccc1 (configuration not stated) | 2.27
CNC1CCc2ccccc2C1 (configuration not stated) | 2.38
CCCCCCCCCCCC(=O)C(C)(C)C(=O)N(C)c1c(OC)cc(OC)cc1OC | 6.67
CC1OC(OC2CCC3(C)C(CCC4C3CC(O)C3(C)C(C5=CC(=O)OC5)CCC43O)C2)CC(O)C1O (configuration not stated) | 1.09
CCC(N)C(=O)Nc1c(C)cccc1C (configuration not stated) | 0.84
Cc1ccc(CCN)cc1 | 1.83
Oc1ccc2cc(O)ccc2c1 | 1.9
CC(=O)Oc1cc(OC(C)CCCc2ccccc2)cc2c1C1CC(O)CCC1C(C)N2C (configuration not stated) | 5.72
O=C(NN1CC=CCC1)c1cccs1 | 1.88
